Like-named read-outs stand apart in the source and are kept apart here.
What was measured:
[1] = tested on: E. coli ATCC 25922; assay: Antibacterial activity in vitro, broth microdilution; format: cell-based; conditions: Escherichia coli, ATCC25922; broth microdilution (CLSI), 16–24 h at 37 °C
Experimental: (§1) Synthesized compounds were prepared as 10 mM DMSO solutions and tested in a final concentration range of 100–0.2 µM [34].
(§2) Broth microdilution testing was performed according to CLSI (Clinical Laboratory Standards Institute) guidelines. MIC (minimal inhibitory concentration) values were defined as the last tested concentration of the compound at which there was no visible growth of bacteria. Inoculums for each microorganism were prepared using the direct colony suspension method, where broth solutions that achieved turbidity equivalent to 0.5 McFarland standard were additionally diluted 100× with Ca-adjusted MH media (Becton Dickinson).

[2] = tested on: S. aureus ATCC 29213; assay: as above; format: cell-based; conditions: Staphylococcus aureus, ATCC29213; broth microdilution (CLSI), 16–24 h at 37 °C
Experimental: as §1, §2

[3] = tested on: S. Pneumoniae ATCC 49619; assay: as above; format: cell-based; conditions: Streptococcus pneumoniae, ATCC49619; broth microdilution (CLSI), 16–24 h at 37 °C
Experimental: as §1, §2

[4] = tested on: HCoV NL63; assay: Antiviral CPE reduction assay; format: cell-based; conditions: Human coronavirus NL63, Huh-7, Huh7 cells
[5] = tested on: YFV 17D; assay: microbe, parasite or virus in culture; format: cell-based; conditions: Yellow fever virus, Huh-7, read-out: EC50 YFV 17D Huh7
[6] = in vitro; conditions: human
[7] = tested on: Influenza H3N2 (A/HK/7/87); assay: Antiviral CPE reduction assay; format: cell-based; conditions: Influenza A virus, MDCK cells
[8] = tested on: HSV-1 KOS; assay: Antiviral CPE reduction assay; format: cell-based, herpes simplex virus-1; conditions: Human alphaherpesvirus 1
[9] = tested on: Sindbis; assay: Antiviral CPE reduction assay; format: cell-based; conditions: Sindbis virus, Huh-7, Huh7 cells
[10] = tested on: Zika mr766; assay: Antiviral CPE reduction assay; format: cell-based; conditions: Zika virus, Huh-7, Huh7 cells
[11] = tested on: HCoV 229E; assay: Antiviral CPE reduction assay; format: cell-based; conditions: Human coronavirus 229E, HEL 299 cells
[12] = tested on: Z-138 non-Hodgkin lymphoma cells; assay: In vitro antiproliferative activity, MTS proliferation assay; format: cell-based, human; conditions: Homo sapiens, Z-138, 72 h
Description: (§3) Human cancer cell lines used in this manuscript, namely Capan-1, HCT-116, NCI-H460, LN-229, HL-60, K-562, Z-138, SW620, PC3 and HeLa, were acquired from the American Type Culture Collection (ATCC, Manassas, VA, USA), while the DND-41 cell line was purchased from the Deutsche Sammlung von Mikroorganismen und Zellkulturen (DSMZ Leibniz-Institut, Germany). Culture media were purchased from Gibco Life Technologies, USA, and supplemented with 10% fetal bovine serum (HyClone, GE Healthcare Life Sciences, Chicago, IL, USA), except for the media for SW620, PC3 and HeLa cells, which were purchased from Sigma.
(§4) Adherent cell lines LN-229, HCT-116, NCI-H460 and Capan-1 cells were seeded at a density between 500 and 1500 cells per well in 384-well tissue culture plates (Greiner). […]. Cells were incubated for 72 h with compounds and were then analyzed using the CellTiter 96® AQueous One Solution Cell Proliferation Assay (MTS) reagent (Promega) according to the manufacturer’s instructions. Absorbance of the samples was measured at 490 nm using a SpectraMax Plus 384 (Molecular Devices), and OD values were used to calculate the 50% inhibitory concentration (IC50). Compounds were tested in two independent experiments. SW620, PC3 and HeLa cells were seeded in 96-well microtiter plates at 1 × 10^4 to 3 × 10^4 cells/mL, depending on the doubling times of the specific cell line. Test agents were then added in five 10-fold dilutions (10^−8 to 10^−4 M). Working dilutions were freshly prepared on the day of testing. After 72 h of incubation, the cell growth rate was evaluated using the MTT assay as described previously. Absorbance of the samples was measured at 570 nm, and OD values were used to calculate the 50% inhibitory concentration (IC50). Each test was performed in quadruplicate in at least two individual experiments.

[13] = tested on: HCoV OC43; assay: Antiviral CPE reduction assay; format: cell-based, human coronavirus OC43; conditions: Betacoronavirus 1, OC43, HEL 299 cells
[14] = tested on: Influenza B (B/Ned/537/05); assay: Antiviral CPE reduction assay; format: cell-based; conditions: Influenza B virus, MDCK cells
[15] = tested on: SW620 colon carcinoma cells; assay: In vitro antiproliferative activity, MTT assay; format: cell-based; conditions: Homo sapiens, SW-620, 72 h
Description: as §3, §4

[16] = tested on: PC3 prostate carcinoma cells; assay: In vitro antiproliferative activity, MTT assay; format: cell-based; conditions: Homo sapiens, 72 h
Description: as §3, §4

[17] = tested on: HeLa cervical carcinoma cells; assay: In vitro antiproliferative activity, MTT assay; format: cell-based; conditions: Homo sapiens, 72 h
Description: as §3, §4

[18] = tested on: E. coli Efflux Del; assay: microbe, parasite or virus in culture; format: cell-based; conditions: Escherichia coli, read-out: MIC E. coli Efflux Del
Experimental: as §1, §2

[19] = tested on: HCT-116 colorectal carcinoma cells; assay: In vitro antiproliferative activity, MTS proliferation assay; format: cell-based; conditions: Homo sapiens, 72 h
Description: as §3, §4

[20] = tested on: NCI-H460 lung carcinoma cells; assay: as above; format: cell-based; conditions: Homo sapiens, 72 h
Description: as §3, §4

[21] = tested on: LN-229 glioblastoma cells; assay: as above; format: cell-based; conditions: Homo sapiens, 72 h
Description: as §3, §4

[22] = tested on: K-562 chronic myeloid leukemia cells; assay: as above; format: cell-based; conditions: Homo sapiens, K562, 72 h
Description: as §3, §4

[23] = tested on: Capan-1 pancreatic adenocarcinoma cells; assay: as above; format: cell-based; conditions: Homo sapiens, 72 h
Experimental: (§5) Culture media were purchased from Gibco Life Technologies, USA, and supplemented with 10% fetal bovine serum (HyClone, GE Healthcare Life Sciences, Chicago, IL, USA), except for the media for SW620, PC3 and HeLa cells, which were purchased from Sigma.
(§6) Cells were incubated for 72 h with compounds and were then analyzed using the CellTiter 96® AQueous One Solution Cell Proliferation Assay (MTS) reagent (Promega) according to the manufacturer’s instructions. […] Compounds were tested in two independent experiments. SW620, PC3 and HeLa cells were seeded in 96-well microtiter plates at 1 × 10^4 to 3 × 10^4 cells/mL, depending on the doubling times of the specific cell line. Test agents were then added in five 10-fold dilutions (10^−8 to 10^−4 M). Working dilutions were freshly prepared on the day of testing. After 72 h of incubation, the cell growth rate was evaluated using the MTT assay as described previously. […] Each test was performed in quadruplicate in at least two individual experiments.

[24] = tested on: DND-41 acute lymphoblastic leukemia cells; assay: as above; format: cell-based; conditions: Homo sapiens, DND41, 72 h
Experimental: as §5, §6

[25] = tested on: HL-60 acute myeloid leukemia cells; assay: as above; format: cell-based; conditions: Homo sapiens, 72 h
Experimental: as §5, §6

[26] = in vitro; conditions: human; remark: listed apart in the source
[27] = tested on: RSV A Long; assay: Antiviral CPE reduction assay; format: cell-based, respiratory syncytial virus A; conditions: HEL 299 cells
[28] = tested on: Influenza H1N1 (A/Ned/378/05); assay: Antiviral CPE reduction assay; format: cell-based; conditions: Influenza A virus, MDCK cells
[29] = in vitro; conditions: dog
[30] = in vitro

Compound: Cl.N=C(N)c1ccc(-c2nc3ncc(Br)cc3[nH]2)cc1 [Compound 10, 4-(6-Bromo-1H-imidazo[4,5-b]pyridin-2-yl)benzimidamide Hydrochloride]
- MIC [1]: > 64 µM
- MIC [2]: > 64 µM
- MIC [3]: > 64 µM
- EC50 [4]: > 100 µM
- EC50 [5]: > 100 µM
- CC50 [6]: > 100 µM
- EC50 [7]: 79.2 ± 14.7 µM
- EC50 [8]: > 100 µM
- EC50 [9]: > 100 µM
- EC50 [10]: > 100 µM
- EC50 [11]: > 100 µM
- IC50 [12]: > 100 µM
- EC50 [13]: > 100 µM
- EC50 [14]: 94 ± 5.2 µM
- IC50 [15]: 0.4 ± 0.1 µM
- IC50 [16]: ≥ 100 µM
- IC50 [17]: 1.3 ± 0.26 µM
- melting point: > 300 °C
- MIC [18]: > 64 µM
- IC50 [19]: > 100 µM
- IC50 [20]: > 100 µM
- IC50 [21]: > 100 µM
- IC50 [22]: > 100 µM
- IC50 [23]: > 100 µM
- IC50 [24]: > 100 µM
- IC50 [25]: > 100 µM
- CC50 [26]: > 100 µM
- EC50 ([27]; human respiratory syncytial virus, CPE reduction): 86.9 ± 18.6 µM
- EC50 [28]: 71.4 ± 24.3 µM
- CC50 [29]: > 100 µM

Compound: c1ccc(-c2nc3ncccc3[nH]2)cc1 [Compound 5, 2-Phenyl-1H-imidazo[4:5-b]pyridine]
- CC50 [30]: > 30 µM
- MIC [1]: > 64 µM
- MIC [2]: > 64 µM
- MIC [3]: > 64 µM
- IC50 [12]: > 100 µM
- IC50 [15]: > 100 µM
- IC50 [16]: > 100 µM
- IC50 [17]: 13.6 ± 3.4 µM
- melting point: 290 to 291 °C
- MIC [18]: > 64 µM
- IC50 [19]: > 100 µM
- IC50 [20]: > 100 µM
- IC50 [21]: > 100 µM
- IC50 [22]: > 100 µM
- IC50 [23]: 98 ± 2.9 µM
- IC50 [24]: > 100 µM
- IC50 [25]: 81.7 ± 26 µM
- CC50 [29]: 79.2 ± 29.4 µM

Compound: Brc1cnc2nc(-c3ccc(C4=NCCCN4)cc3)[nH]c2c1.Cl [Compound 15, 6-Bromo-2-(4-(1,4,5,6-tetrahydropyrimidin-2-yl)phenyl)-1H-imidazo[4,5-b]pyridine Hydrochloride]
- CC50 [30]: > 30 µM
- MIC [1]: > 64 µM
- MIC [2]: > 64 µM
- MIC [3]: > 64 µM
- IC50 [12]: 29.1 ± 16.5 µM
- IC50 [15]: 3.5 ± 0.2 µM
- IC50 [16]: 8.6 ± 0.7 µM
- IC50 [17]: 7.3 ± 0.4 µM
- melting point: > 300 °C
- MIC [18]: > 64 µM
- IC50 [19]: > 100 µM
- IC50 [20]: > 100 µM
- IC50 [21]: 73.5 ± 0.8 µM
- IC50 [22]: > 100 µM
- IC50 [23]: > 100 µM
- IC50 [24]: 17 ± 1.3 µM
- IC50 [25]: > 100 µM
- CC50 [29]: > 100 µM

Compound: Cl.c1cnc2nc(-c3ccc(C4=NCCN4)cc3)[nH]c2c1 [Compound 11, 2-(4-(4,5-Dihydro-1H-imidazol-2-yl)phenyl)-1H-imidazo[4,5-b]pyridine Hydrochloride]
- CC50 [30]: > 30 µM
- MIC [1]: > 64 µM
- MIC [2]: > 64 µM
- MIC [3]: > 64 µM
- IC50 [12]: 76.4 ± 33.4 µM
- IC50 [15]: 12.1 ± 3.7 µM
- IC50 [16]: ≥ 100 µM
- IC50 [17]: 11.1 ± 3.5 µM
- melting point: > 300 °C
- MIC [18]: > 64 µM
- IC50 [19]: > 100 µM
- IC50 [20]: 84.9 ± 21.4 µM
- IC50 [21]: 81.7 ± 17.4 µM
- IC50 [22]: > 100 µM
- IC50 [23]: 74.5 ± 36.1 µM
- IC50 [24]: 48.8 ± 12.5 µM
- IC50 [25]: > 100 µM
- CC50 [29]: > 100 µM

Compound: Cn1c(-c2ccc(C#N)cc2)nc2cccnc21 [Compound 17, 4-(3-Methyl-3H-imidazo[4,5-b]pyridin-2-yl)benzonitrile]
- MIC [1]: > 64 µM
- MIC [2]: > 64 µM
- MIC [3]: > 64 µM
- EC50 [4]: > 100 µM
- EC50 [5]: > 100 µM
- CC50 [6]: > 100 µM
- EC50 [7]: > 100 µM
- EC50 [8]: > 100 µM
- EC50 [9]: > 100 µM
- EC50 [10]: > 100 µM
- EC50 [11]: > 100 µM
- IC50 [12]: > 100 µM
- EC50 [13]: > 100 µM
- EC50 [14]: > 100 µM
- IC50 [15]: > 100 µM
- IC50 [16]: > 100 µM
- IC50 [17]: > 100 µM
- melting point: 183 to 185 °C
- MIC [18]: > 64 µM
- IC50 [19]: > 100 µM
- IC50 [20]: > 100 µM
- IC50 [21]: > 100 µM
- IC50 [22]: > 100 µM
- IC50 [23]: > 100 µM
- IC50 [24]: > 100 µM
- IC50 [25]: > 100 µM
- CC50 [26]: > 100 µM
- EC50 ([27]; CPE reduction): 79 ± 29.7 µM
- EC50 ([27]; human respiratory syncytial virus, HEL 299, CPE reduction): 58 µM
- EC50 [28]: > 100 µM
- CC50 [29]: > 100 µM
